In patent US20260286396A1, “AXL KNOCK OUT CAR T CELLS AND METHODS FOR USE THEREOF” (priority 2023, published 2026):

System: CART19 cells
Test: RNA sequencing of CART19 cells with Ingenuity pathway analysis (pathways, upstream regulators)
Type: cell-based, human
Details: for Expr Log Ratio / Activation Z-Score / Predicted Activation State: 30 nM, 24 hours vs vehicle
Protocol: CART19 cells were isolated using CD4 and CD8 microbeads to […] the JeKo-1 target cells; this isolation step was performed twice to eliminate the possible contamination of JeKo-1 cells. RNA was isolated from the CART19 cells using QIAGEN RNEASY® Plus Mini Kit. RNA was further treated with DNase I (QIAGEN) and purified using RNA Clean & Concentrator (Zymo Research). […] The fastq files were viewed in FastQC to check for quality (Cox et al., Mol Ther., 29 (4): 1529-1540, 2020). After verifying the lack of adapter sequences with FastQC, Cutadapt (Martin, EMBnet, 17:10-12, 2011) was used to filter for reads greater than 32 base pairs. Output files were re-checked for quality using FastQC. The latest human reference genome (GRCh38.p13) was downloaded from NCBI. Genome index files were generated using STAR (Cox et al. 2020, supra, and Dobin et al., Bioinformatics, 29:15-21, 2012). Paired end reads from fastq files were mapped to the genome for each condition. HTSeq was used to generate expression counts for each gene (Cox et al. 2020, supra; and Putri et al., Bioinformatics, 38:2943-2945, 2022). […] The disruption efficiency of the CRISPR/Cas9 GM-CSF knockout was determined using targeted sequencing through PCR and TIDE analysis (software available at tide.nki.nl) as described elsewhere (Sakemura et al. 2021, supra).
RNA sequencing of CART19 cells was then performed. […] Data were analyzed with the use of QIAGEN Ingenuity Pathway Analysis (IPA) (digitalinsights.qiagen.com/IPA; Krämer et al., Bioinformatics 30 (4): 523-530, 2014).

[1] = CART19+JeKo-1, 30 nM TP-0903 vs vehicle, 24 h
[2] = CART19+JeKo-1, 30 nM TP-0903 vs vehicle, 24 h, flag bias
[3] = Upstream Regulator BRD4 (second entry, r376)

In the case of `CN1CCN(Cc2ccc(Nc3ncc(Cl)c(Nc4ccccc4S(=O)(=O)N(C)C)n3)cc2)CC1` [TP-0903, Dubermatinib], the “upstream regulator SREBF1 Predicted Activation State” value [1] is reported as “inhibited”, the “upstream regulator SREBF2 Activation Z-Score” value [1] is reported as −1.433 and the “upstream regulator SUCNR1 Activation Z-Score” value [1] is reported as 0. The “upstream regulator TEAD3 Activation Z-Score” value [1] was −1.633, the “upstream regulator TERT Activation Z-Score” value [1] was −1.412 and the “upstream regulator TGFB1 Activation Z-Score” value [1] was −1.429. For the same molecule, the “upstream regulator TGFB3 Activation Z-Score” value [1] was −0.894, the “upstream regulator TGFBR2 Activation Z-Score” value [1] was 0.658 and the “upstream regulator TLR2 Activation Z-Score” value [1] was −1.417. The “upstream regulator TLR7 Predicted Activation State” value [1] was “inhibited”, the “upstream regulator TNFRSF4 Activation Z-Score” value [1] was −1.098 and the “upstream regulator TNFSF15 Activation Z-Score” value [1] was −0.425. The “upstream regulator TRAF3 Activation Z-Score” value [1] was −0.656, the “upstream regulator TREM1 Activation Z-Score” value [1] was −0.093 and the “upstream regulator VEGF Activation Z-Score” value [1] was −0.81. The “upstream regulator WNT1 Activation Z-Score” value [1] was −1.387, the “upstream regulator YAP1 Activation Z-Score” value [1] was 0.591 and the “upstream regulator COMMD1 Activation Z-Score” value [2] was 2. The “upstream regulator CSF Activation Z-Score” value [2] was −0.816, the “upstream regulator EGLN Activation Z-Score” value [2] was 1.793 and the “upstream regulator IKZF2 Activation Z-Score” value [2] was 0.447. The “upstream regulator MIR-17-5P (AND OTHER MIRNAS W/SEED AAAGUGC) Activation Z-Score” value [2] was 1.449, the “upstream regulator MIR-450A-5P (AND OTHER MIRNAS W/SEED UUUGCGA) Activation Z-Score” value [2] was 2.236 and the “upstream regulator MLXIPL Activation Z-Score” value [2] was −3.101. For the same molecule, the “upstream regulator PAF1 Activation Z-Score” value [2] was 0.762, the “upstream regulator TLR7 Activation Z-Score” value [2] was −2 and the “upstream regulator TPH1 Activation Z-Score” value [2] was −1.89. For the same molecule, the “Expr Log Ratio” value (Upstream Regulator ADAM8) was −0.008, the “Activation Z-Score” value (Upstream Regulator ADRB) was 1.616 and the “Activation Z-Score” value (Upstream Regulator AHR) was −0.104. The “Expr Log Ratio” value (Upstream Regulator AHR) was −0.083, the “Activation Z-Score” value (Upstream Regulator AKT) was −2.79 and the “Predicted Activation State” value (Upstream Regulator AKT) was “inhibited”. The “Activation Z-Score” value (Upstream Regulator AREG) was −2.287, the “Expr Log Ratio” value (Upstream Regulator AREG) was 1.429 and the “Predicted Activation State” value (Upstream Regulator AREG) was “inhibited”. For the same molecule, the “Activation Z-Score” value (Upstream Regulator BHLHE40) was −0.158, the “Expr Log Ratio” value (Upstream Regulator BHLHE40) was 0.043 and the “Expr Log Ratio” value (Upstream Regulator BIRC5) was −0.028. For the same molecule, the “Activation Z-Score” value (Upstream Regulator BNIP3L) was −1.463, the “Expr Log Ratio” value (Upstream Regulator BNIP3L) was −0.47 and the “Activation Z-Score” value (Upstream Regulator BRD4 (first entry, r300, no Expr Log Ratio)) was −0.213. For the same molecule, the “Activation Z-Score” value [3] was −2.16, the “Expr Log Ratio” value [3] was −0.067 and the “Predicted Activation State” value [3] was “inhibited”. The “Activation Z-Score” value (Upstream Regulator CASP8) was 1.72, the “Expr Log Ratio” value (Upstream Regulator CASP8) was 0.141 and the “Activation Z-Score” value (Upstream Regulator CD3) was −1.272. For the same molecule, the “Activation Z-Score” value (Upstream Regulator CD40) was −0.284, the “Expr Log Ratio” value (Upstream Regulator CD40) was −0.283 and the “Activation Z-Score” value (Upstream Regulator CDKN2A) was 0.421. For the same molecule, the “Expr Log Ratio” value (Upstream Regulator CDKN2A) was −0.27, the “Activation Z-Score” value (Upstream Regulator CREB1) was −0.611 and the “Expr Log Ratio” value (Upstream Regulator CREB1) was −0.112. For the same molecule, the “Activation Z-Score” value (Upstream Regulator CREM) was 0.286, the “Expr Log Ratio” value (Upstream Regulator CREM) was 0.351 and the “Activation Z-Score” value (Upstream Regulator CSF1) was −1.71. For the same molecule, the “Expr Log Ratio” value (Upstream Regulator CSF1) was −0.377, the “Activation Z-Score” value (Upstream Regulator CSF2) was −2.255 and the “Expr Log Ratio” value (Upstream Regulator CSF2) was −0.066. The “Predicted Activation State” value (Upstream Regulator CSF2) was “inhibited”, the “Activation Z-Score” value (Upstream Regulator CTNNB1) was −2.082 and the “Expr Log Ratio” value (Upstream Regulator CTNNB1) was −0.154. For the same molecule, the “Predicted Activation State” value (Upstream Regulator CTNNB1) was “inhibited”, the “Activation Z-Score” value (Upstream Regulator DDIT4) was −0.816 and the “Expr Log Ratio” value (Upstream Regulator DDIT4) was −0.248. For the same molecule, the “Activation Z-Score” value (Upstream Regulator EGF) was −1.744, the “Expr Log Ratio” value (Upstream Regulator EIF2S1) was 0.079 and the “Activation Z-Score” value (Upstream Regulator ELAVL1) was −1.431. For the same molecule, the “Expr Log Ratio” value (Upstream Regulator ELAVL1) was 0.045, the “Activation Z-Score” value (Upstream Regulator EPAS1) was −0.365 and the “Expr Log Ratio” value (Upstream Regulator EPAS1) was −0.784. The “Activation Z-Score” value (Upstream Regulator ETS1) was −1.485, the “Expr Log Ratio” value (Upstream Regulator ETS1) was 0.129 and the “Activation Z-Score” value (Upstream Regulator FOXP3) was 1.094. The “Expr Log Ratio” value (Upstream Regulator FOXP3) was −0.21, the “Expr Log Ratio” value (Upstream Regulator GNAQ) was −0.381 and the “Activation Z-Score” value (Upstream Regulator GNAS) was 0.898. For the same molecule, the “Expr Log Ratio” value (Upstream Regulator GNAS) was 0.075, the “Activation Z-Score” value (Upstream Regulator HDL-CHOLESTEROL) was 1.89 and the “Activation Z-Score” value (Upstream Regulator HIF1A) was −1.763. The “Expr Log Ratio” value (Upstream Regulator HIF1A) was 0.181, the “Activation Z-Score” value (Upstream Regulator HRAS) was −1.187 and the “Activation Z-Score” value (Upstream Regulator ID2) was 1.609. For the same molecule, the “Expr Log Ratio” value (Upstream Regulator ID2) was 0.114, the “Activation Z-Score” value (Upstream Regulator IFN BETA) was −0.892 and the “Activation Z-Score” value (Upstream Regulator IFNG) was −2.044. For the same molecule, the “Expr Log Ratio” value (Upstream Regulator IFNG) was −0.559, the “Predicted Activation State” value (Upstream Regulator IFNG) was “inhibited” and the “Activation Z-Score” value (Upstream Regulator IGG) was 1.765. The “Activation Z-Score” value (Upstream Regulator IL1B) was −1.164, the “Expr Log Ratio” value (Upstream Regulator IL1B) was 0.19 and the “Activation Z-Score” value (Upstream Regulator IL2) was −1.669. For the same molecule, the “Expr Log Ratio” value (Upstream Regulator IL2) was −0.397, the “Activation Z-Score” value (Upstream Regulator IL3) was −1.125 and the “Expr Log Ratio” value (Upstream Regulator IL3) was −0.843. The “Activation Z-Score” value (Upstream Regulator IL4) was −3.271, the “Expr Log Ratio” value (Upstream Regulator IL4) was −1.068 and the “Predicted Activation State” value (Upstream Regulator IL4) was “inhibited”. For the same molecule, the “Activation Z-Score” value (Upstream Regulator IL5) was −1.165, the “Expr Log Ratio” value (Upstream Regulator IL5) was −1.157 and the “Activation Z-Score” value (Upstream Regulator IL6) was −2.441. For the same molecule, the “Expr Log Ratio” value (Upstream Regulator IL6) was −1.319, the “Predicted Activation State” value (Upstream Regulator IL6) was “inhibited” and the “Activation Z-Score” value (Upstream Regulator IL13) was −1.489. For the same molecule, the “Expr Log Ratio” value (Upstream Regulator IL13) was 0, the “Activation Z-Score” value (Upstream Regulator IL17A) was 0.354 and the “Expr Log Ratio” value (Upstream Regulator IL17A) was −0.356. For the same molecule, the “Activation Z-Score” value (Upstream Regulator IL33) was −1.508, the “Activation Z-Score” value (Upstream Regulator IMMUNOGLOBULIN) was 0.465 and the “Expr Log Ratio” value (Upstream Regulator ITGA11) was −0.167. The “Activation Z-Score” value (Upstream Regulator ITGA11, flag bias) was −1 and the “Activation Z-Score” value (Upstream Regulator KLF11) was −2.333.
